#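 A five-concentration, 48-hour dose response in 96-well plates underlies each endpoint, interpolated linearly between surrounding concentrations. GI50 is the concentration that inhibits growth by half. TGI denotes the concentration required for complete inhibition of growth.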
# Experiments:
# Assay in all cases: NCI anticancer screen, dose series, 48 h
# [1] = tested on: A498 renal
# [2] = tested on: COLO 205 colon
# [3] = tested on: SF-268 CNS
# [4] = tested on: OVCAR-5 ovarian
# [5] = tested on: MOLT-4 leukemia
# [6] = tested on: SF-295 CNS
# [7] = tested on: OVCAR-3 ovarian
# [8] = tested on: MALME-3M melanoma
# [9] = tested on: SR leukemia
# [10] = tested on: BT-549 breast
structure (smiles),measurement,setting,value
O=C(c1nc2ccc(Cl)cc2[nH]c1=O)C(O)c1cccc([N+](=O)[O-])c1 (stereo not given),TGI,[1],> 100 µM
same,TGI,[2],> 100 µM
same,TGI,[3],81.5 µM
same,TGI,[4],> 100 µM
same,TGI,[5],> 100 µM
same,TGI,[6],> 100 µM
same,TGI,[7],> 100 µM
same,TGI,[8],> 100 µM
same,TGI,[9],> 100 µM
OCC(O)C(OC1OC(CO)C(O)C(O)C1O)c1nn(-c2ccc(Cl)cc2)c2nc3cc(Cl)c(Cl)cc3nc12 (stereo not given),TGI,[1],> 100 µM
same,TGI,[3],> 100 µM
same,TGI,[4],> 100 µM
same,TGI,[5],> 100 µM
same,TGI,[6],> 100 µM
same,TGI,[7],> 100 µM
same,TGI,[8],> 100 µM
same,TGI,[9],> 100 µM
Cc1cccc(/C=N/N=C(\N)NO)n1,TGI,[1],> 100 µM
same,TGI,[2],> 100 µM
same,TGI,[3],> 100 µM
same,TGI,[5],> 100 µM
same,TGI,[6],> 100 µM
same,TGI,[7],> 100 µM
same,TGI,[8],> 100 µM
same,TGI,[9],> 100 µM
O=C(CC(=O)c1cccc2ccccc12)C(=O)Nc1nccs1,TGI,[1],> 100 µM
same,TGI,[2],> 100 µM
same,TGI,[3],> 100 µM
same,TGI,[4],> 100 µM
same,TGI,[5],> 100 µM
same,TGI,[6],> 100 µM
same,TGI,[7],> 100 µM
same,TGI,[8],> 100 µM
same,TGI,[9],> 100 µM
CCOc1ccc2c(c1)[n+]([O-])c(-c1ccc([N+](=O)[O-])cc1)c(N)[n+]2[O-],TGI,[1],> 100 µM
same,TGI,[2],> 100 µM
same,TGI,[3],> 100 µM
same,TGI,[4],> 100 µM
same,TGI,[5],> 100 µM
same,TGI,[6],> 100 µM
same,TGI,[7],> 100 µM
same,TGI,[8],> 100 µM
same,TGI,[9],> 100 µM
COc1ccc(C#CC2=C(Br)C(=O)OC2)cc1,GI50,[1],0.873 µM
same,TGI,[1],12 µM
same,GI50,[2],2.56 µM
same,TGI,[2],29.1 µM
same,GI50,[3],16.9 µM
same,TGI,[3],> 50 µM
same,GI50,[4],14.7 µM
same,TGI,[4],28.8 µM
same,GI50,[5],4.44 µM
same,TGI,[5],> 50 µM
same,GI50,[6],10.5 µM
same,TGI,[6],29.1 µM
same,GI50,[7],1.61 µM
same,TGI,[7],7 µM
same,GI50,[10],8.32 µM
same,TGI,[10],18.3 µM
same,GI50,[9],2.63 µM
same,TGI,[9],> 50 µM
CNC(=O)NCCCCC(NC(=O)OCc1ccccc1)C(=O)OCc1ccccc1 (stereo not given),TGI,[1],> 100 µM
same,TGI,[2],31.9 µM
same,TGI,[4],> 100 µM
same,TGI,[5],40.9 µM
same,TGI,[6],50.3 µM
same,TGI,[7],32.1 µM
same,TGI,[8],47 µM
same,TGI,[9],61.4 µM
COC(=O)c1ccc(N/C=C(/C#N)c2ccsc2)cc1,TGI,[1],15.7 µM
same,TGI,[2],> 100 µM
same,TGI,[3],37 µM
same,TGI,[4],> 100 µM
same,TGI,[5],> 100 µM
same,TGI,[6],19.9 µM
same,TGI,[7],23.1 µM
same,TGI,[8],36.2 µM
same,TGI,[9],> 100 µM
CC(C)=CC1(C)/C(=N\O)C(C)(CC(C)C)C(=O)N1O (stereo not given),TGI,[1],> 100 µM
same,TGI,[2],> 100 µM
same,TGI,[4],> 100 µM
same,TGI,[5],> 100 µM
same,TGI,[6],> 100 µM
same,TGI,[7],> 100 µM
same,TGI,[8],> 100 µM
same,TGI,[9],> 100 µM
O=C(Cc1ccccc1)N/N=C(/c1nc2ccc([N+](=O)[O-])cc2[nH]c1=O)C(O)c1ccco1 (stereo not given),TGI,[1],> 100 µM
same,TGI,[2],> 100 µM
same,TGI,[3],> 100 µM
same,TGI,[4],> 100 µM
same,TGI,[5],> 100 µM
same,TGI,[6],> 100 µM
same,TGI,[8],> 100 µM
same,TGI,[9],> 100 µM
CCOC(=O)C1=C(Nc2cccc3ccccc23)OCC1=O,TGI,[1],> 100 µM
same,TGI,[2],> 100 µM
same,TGI,[3],> 100 µM
same,TGI,[4],> 100 µM
same,TGI,[5],> 100 µM
same,TGI,[7],> 100 µM
same,TGI,[8],> 100 µM
same,TGI,[9],> 100 µM
CC(C)(C)c1cc(C#N)c2c(c1)C(=O)OC2(c1ccccc1)c1ccccc1C#N (stereo not given),TGI,[1],> 100 µM
same,TGI,[2],> 100 µM
same,TGI,[3],> 100 µM
same,TGI,[4],> 100 µM
same,TGI,[5],> 100 µM
same,TGI,[6],> 100 µM
same,TGI,[7],> 100 µM
same,TGI,[8],> 100 µM
same,TGI,[9],> 100 µM
COc1ccc2c3c1OC1C4(CCC5C(C2)N(CC2CC2)CCC351)OCCO4 (stereo not given),TGI,[2],> 100 µM
same,TGI,[3],> 100 µM
same,TGI,[4],> 100 µM
same,TGI,[5],> 100 µM
same,TGI,[6],> 100 µM
same,TGI,[7],> 100 µM
same,TGI,[8],> 100 µM
same,TGI,[10],> 100 µM
same,TGI,[9],> 100 µM
C=CC(=O)N1CCC(CNc2ncnc(N)c2-c2ccc(Oc3ccccc3)cc2)CC1,GI50,[1],10.7 µM
same,TGI,[1],31.9 µM
same,GI50,[3],26.6 µM
same,TGI,[3],> 100 µM
same,GI50,[4],46.7 µM
same,TGI,[4],> 100 µM
same,GI50,[5],18.6 µM
same,TGI,[5],66 µM
same,GI50,[6],29 µM
same,TGI,[6],> 100 µM
same,GI50,[7],27.6 µM
same,TGI,[7],85.1 µM
same,GI50,[8],23.9 µM
same,TGI,[8],67 µM
same,GI50,[10],20.3 µM
same,TGI,[10],70.1 µM
Cc1ccc(Nn2c(SCC(=O)Nc3nc(-c4ccccc4)cs3)nc(C)c2C)cc1,GI50,[1],17.4 µM
same,TGI,[1],> 100 µM
same,GI50,[2],3.98 µM
same,TGI,[2],34.4 µM
same,GI50,[3],9.1 µM
same,TGI,[3],> 100 µM
same,GI50,[4],17.2 µM
same,TGI,[4],> 100 µM
same,GI50,[5],3.46 µM
same,TGI,[5],> 100 µM
same,GI50,[6],1.06 µM
same,TGI,[6],5.89 µM
same,GI50,[7],8.24 µM
same,TGI,[7],> 100 µM
same,GI50,[8],2.48 µM
same,TGI,[8],13.6 µM
same,GI50,[10],3.18 µM
same,TGI,[10],14.1 µM
COc1cc2c3c(n(CCCN=[N+]=[N-])c(=O)c2cc1OC)-c1ccc(NC(C)=O)cc1C3=O,GI50,[1],> 50 µM
same,TGI,[1],> 50 µM
same,GI50,[2],> 50 µM
same,TGI,[2],> 50 µM
same,GI50,[3],> 50 µM
same,TGI,[3],> 50 µM
same,GI50,[4],> 50 µM
same,TGI,[4],> 50 µM
same,GI50,[6],8.96 µM
same,TGI,[6],> 50 µM
same,GI50,[7],> 50 µM
same,TGI,[7],> 50 µM
same,GI50,[8],> 50 µM
same,TGI,[8],> 50 µM
same,GI50,[10],> 50 µM
same,TGI,[10],> 50 µM
same,GI50,[9],4.85 µM
same,TGI,[9],> 50 µM
CCSc1nnc(-c2ccc3ccccc3c2O)n1-c1ccccc1,GI50,[3],8.02 µM
same,TGI,[3],> 100 µM
same,GI50,[5],> 100 µM
same,TGI,[5],> 100 µM
same,GI50,[7],> 100 µM
same,TGI,[7],> 100 µM
same,GI50,[8],69.7 µM
same,TGI,[8],> 100 µM
same,GI50,[10],> 100 µM
same,TGI,[10],> 100 µM
CC(NNC(=S)N1CCN(c2ccccn2)CC1)c1cccc[n+]1[O-] (stereo not given),TGI,[2],> 100 µM
same,TGI,[3],> 100 µM
same,TGI,[5],> 100 µM
same,TGI,[6],> 100 µM
same,TGI,[7],> 100 µM
same,TGI,[10],> 100 µM
same,TGI,[9],96.1 µM
C=C(C)C1Cc2cc(C(C)=O)ccc2O1 (stereo not given),TGI,[2],> 100 µM
same,TGI,[3],> 100 µM
same,TGI,[4],> 100 µM
same,TGI,[5],> 100 µM
same,TGI,[6],> 100 µM
same,TGI,[7],> 100 µM
same,TGI,[8],> 100 µM
same,TGI,[10],> 100 µM
N#Cc1cc2c(=S)[nH]c(=S)[nH]c2nc1SCc1ccccc1,GI50,[1],39.9 µM
same,TGI,[1],> 100 µM
same,GI50,[2],46.2 µM
same,TGI,[2],> 100 µM
same,GI50,[3],30.6 µM
same,TGI,[3],> 100 µM
same,GI50,[4],76.2 µM
same,TGI,[4],> 100 µM
same,GI50,[5],43.3 µM
same,TGI,[5],> 100 µM
same,GI50,[6],46.8 µM
same,TGI,[6],> 100 µM
same,GI50,[7],65.5 µM
same,TGI,[7],> 100 µM
same,GI50,[10],47.2 µM
same,TGI,[10],> 100 µM
same,GI50,[9],41.3 µM
same,TGI,[9],> 100 µM

# Reference: PubChem BioAssay (NCI)
